# Publication PMC4880976, “Pharmacologic rationale for the NK1R antagonist, aprepitant as adjunctive therapy in HIV” (Journal of Translational Medicine, 2016)
# Entries after “also recorded” stand apart in the source; their conditions may differ.
# Experiments:
# [1] = 1 μM in DMEM 10 % FBS or MDM cultures, days 0-7
# Protocol: A validated, liquid chromatography-tandem mass spectrometry method was used for the quantification of aprepitant plasma concentration in HIV infected animals and tissue culture media. The method utilized a simple sample-preparation procedure of protein precipitation with methanol. Chromatographic separation was performed on a reversed phase C8 column (Hypersil Gold, 50 mm × 2.1 mm, 3 μm) using a mobile phase composed of acetonitrile and water in 0.5 % formic acid through gradient elution. Electro-spray ionization in positive mode was incorporated in the tandem mass spectrometric detection. The lower limit of quantitation of aprepitant in human plasma was 1 ng/mL.
# GAG expression in control (non-treated) cultures were designated as 100 %; *p < 0.0001 between all groups including control were obtained through one-way ANOVA with post-test analysis by Bonferroni’s Multiple Comparison Test indicating significant difference between all groups in pair wise comparison. b Aprepitant added to DMEM 10 % FBS media or MDM cultures at a concentration of 1 μM (0.53 μg/ml) on day 0 and measured on days 0, 1, 2, 3 and 7. Results are presented as mean ± SD for three independent experiments
# pro-inflammatory markers = system: pro-inflammatory markers; parameters: method as in PMID 25915168; conditions: 375 mg daily, 2 weeks, HIV positive individuals; cited from earlier work
# [2] = parameters: species or system Rhesus macaques; conditions: rhesus monkey, in vivo
# Protocol: For infectivity studies, eight male rhesus macaques were used. Animals were infected intravenously with 50 ng p27 of SIV. […] Aprepitant (commercial capsule contents) was mixed and co-administered with various food preparations to ensure dosing compliance. Food preparations included peanut butter, marshmallow cream and honey, disguised in non-citrus fruit. While formal stability and delivery experiments were not conducted, pilot bioavailability studies confirmed the robustness of aprepitant exposures following food co-administration. The improved bioavailability with food-based dosing in conjunction with oral aprepitant is consistent with preclinical experiments which project simulated exposures based on the commercial nanosized aprepitant formulation. In this evaluation, in silico model predictions were similar to observed in vivo pharmacokinetic data in the fed state; other studies have shown the benefit of complexation strategies to enhance aprepitant solubility/dissolution [30, 31]. […] Videotaped recordings were analyzed using Observer XT® (Noldus IT). Animals were sacrificed and necropsied after 1 year.
# in vivo = conditions: male, rhesus monkey
# Protocol: A pilot study in two groups of three male Rhesus macaques (Macaca mulatta) was conducted to assess the exposure attained following once daily dosing of 80 and 125 mg aprepitant administered orally for 14 days (n = 3 per dose group). The 80 and 125 mg doses correlate with the human doses recommended for CINV patients (125 mg orally 1 h prior to chemotherapy treatment (day 1) and 80 mg orally once daily in the morning on days 2 and 3). On a weight basis these doses represent approximately 8 and 12.5 mg/kg (weight range, 7–12 kg for the rhesus) compared to 1.14 and 1.79 mg/kg human doses (assuming a 70 kg person). […] Blood was collected for dense PK sampling on days 1, 7 and 14 and trough samples were collected prior to dosing on days 3, 5, 7, 11 and 13.
# Blood was collected for PK sampling on days 1, 7 and 14 and trough samples were collected prior to dosing on days 3, 5, 7, 11 and 13. Viral loads were assessed at 2 and 4 weeks after infection and monthly thereafter. […] Behavioral data were collected using video cameras installed on walls opposite the caging. Videotaping was scheduled to avoid disruptions in daily feedings, routine husbandry and research procedures. Data were collected pre-infection, 2 and 4 weeks post-infection and monthly thereafter. Videotaped recordings were analyzed using Observer XT® (Noldus IT). Animals were sacrificed and necropsied after 1 year.
# SIVmac251 = test: SIV infectivity study, plasma viral load; assay type: in vivo, rhesus macaques (Macaca mulatta)
# Protocol: For infectivity studies, eight male rhesus macaques were used. Animals were infected intravenously with 50 ng p27 of SIV. Following infection four animals were treated with aprepitant once daily dosing of 125 mg aprepitant administered orally for a year and four infected animals were left untreated. Aprepitant (commercial capsule contents) was mixed and co-administered with various food preparations to ensure dosing compliance. Food preparations included peanut butter, marshmallow cream and honey, disguised in non-citrus fruit. While formal stability and delivery experiments were not conducted, pilot bioavailability studies confirmed the robustness of aprepitant exposures following food co-administration. The improved bioavailability with food-based dosing in conjunction with oral aprepitant is consistent with preclinical experiments which project simulated exposures based on the commercial nanosized aprepitant formulation. In this evaluation, in silico model predictions were similar to observed in vivo pharmacokinetic data in the fed state; other studies have shown the benefit of complexation strategies to enhance aprepitant solubility/dissolution [30, 31].
# Blood was collected for PK sampling on days 1, 7 and 14 and trough samples were collected prior to dosing on days 3, 5, 7, 11 and 13. […] Videotaped recordings were analyzed using Observer XT® (Noldus IT). […]
# [3] = system: PD-1 expression on CD3+CD4+ cells; test: PD-1 expression on CD4+ T-cells in PBMC, flow cytometry; assay type: cell-based, human
# Protocol: For cytokine and PD-1 assessment experiments freshly isolated peripheral blood mononuclear cell (PBMC) purchased from the Human Immunology Core Facility of The University of Pennsylvania School of Medicine (Philadelphia, PA) were cultured in RPMI medium supplemented with 10 % FBS overnight. Some cultures were treated with SP (10 µM) aprepitant (10 µM) or DMSO (0.001 %, vehicle for aprepitant). Cytokine concentrations were measured in supernatants using multiplex assay 24 h after SP/aprepitant treatment (see below). For PD-1 expression SP and aprepitant were added at day 0 and PD-1 expression was monitored daily for up to 8 days using flow cytometry.
# Fig. 6 Aprepitant blocks SP induced PD-1 expression on CD4+ T-cells. PBMC were treated for 7 days with SP and aprepitant as indicated. PD-1 expression was measured by flow cytometry on CD3+CD4+ cells and expressed as percentage of PD-1 positive cells. a Results from representative experiment are shown. First two columns show gaiting strategy. […] Median (spread): control 14.7 (11.1), SP treated 38.4 (60.6), SP + aprepitant treated 7.8 (6.0) TEXT PRINTED IN THE PICTURE: (a) SP: PD1+ 67.1 | (a) SP + aprepitant: PD1+ 9.53 DOUBTS OF THE COPYIST ABOUT THIS PICTURE: SP + aprepitant, PD1+ 9.53: the sign after PD1 looks like '+' or '−' because it touches the gate line / SP + aprepitant, 9.53: small print, so the digits 9, 5 and 3 are not fully certain / The rows 'no staining' (PD1+ 0.079) and 'control' (PD1+ 11.4) were left out because they are not substances
# [4] = system: CD163 cleavage in human monocytes; test: sCD163 release from human monocytes, ELISA; assay type: cell-based; conditions: aprepitant 10 μM 30 min before SP 5 μM 60 min, p = 0.004
# Protocol: sCD163 was measured by ELISA (Trillium Diagnostics, Brewer, Maine, USA) according to manufacturer’s recommendations.
# Fig. 7 SP induces cleavage of CD163 in monocytes. sCD163 was measured by ELISA in the supernatant of freshly isolated human monocytes treated with SP and aprepitant as indicated. a Time course of cells treated with varying doses of SP as indicated. *p < 0.001 control versus 5 and 10 μM of SP. b Cells were pre-incubated with aprepitant (10 μM) for 30 min and then treated with SP (5 μM) for 60 min. *p < 0.001 SP versus control, p = 0.004 SP versus SP + aprepitant. Results are presented as mean ± SD from three independent experiments
compound,measurement,setting,value
C[C@@H](O[C@H]1OCCN(Cc2n[nH]c(=O)[nH]2)[C@H]1c1ccc(F)cc1)c1cc(C(F)(F)F)cc(C(F)(F)F)c1 [aprepitant],degradation in culture media,[1],little or no degradation
same,"levels of pro-inflammatory cytokines (G-CSF, MIP-1α, IL-6, IL-8, TNFα)",pro-inflammatory markers,reduced levels; also recorded: decrease; also recorded: significant reduction
same,"sCD163, plasma SP and PD-1 expression on CD4 T-cells",pro-inflammatory markers,decrease; also recorded: reduction
same,"systemic and neuropathology, treated versus untreated",[2],no differences
same,Kp,in vivo,0.0005 to 0.008
same,decline in trough exposure between days 13 and 14 (extent of induction),in vivo,approximately 32.5%
same,trough plasma concentration reaches steady state,in vivo,≤ 10 days
same,reduction of viral load,"SIVmac251; 125 mg once daily oral for 12 months, SIV-infected rhesus, weeks 12-52",approximately tenfold
same,reduction in plasma levels of viral RNA versus non-treated controls,"SIVmac251; 125 mg/day oral, 3–12 month observation period",1 log
same,"percentage of PD-1 positive CD4 cells, median (spread)","[3]; SP + aprepitant treated, 7 days, five experiments, control 14.7 (11.1)",7.8 (6.0) %
same,effect on SP induced PD-1 expression,[3]; aprepitant with SP,blocked
same,effect on SP induced sCD163 release,[4],inhibited
